GI50 and TGI data for 5 molecules are collected here from PubChem BioAssay (NCI).

Among the test systems are MCF7 breast; HOP-62 NSCLC; SK-MEL-5 melanoma; BT-549 breast; SNB-75 CNS; K-562 leukemia; COLO 205 colon; OVCAR-3 ovarian; SW-620 colon; SF-539 CNS.
Common to all, as to experiment: NCI anticancer screen, dose series, 48 h

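1) Cells in 96-well plates. 2) Compound, 48 h, 5 concentrations. 3) Linear interpolation between surrounding doses. 4) Unreached endpoint = highest concentration. At the GI50, growth is halved. At the TGI there is no net growth.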

Regarding `NC(=O)[C@@H](CC1CC1)[C@@H](CCC(F)(F)F)C(=O)N[C@H]1N=C(c2ccccc2)c2cccc(F)c2NC1=O`, the GI50 in the assay on MCF7 breast is 28300 nM; with HOP-62 NSCLC it was over 100000 nM; in the assay with SK-MEL-5 melanoma, 17700 nM; in the assay on BT-549 breast, over 100000 nM; in the assay with SNB-75 CNS, 16300 nM; with K-562 leukemia, 46900 nM. Also, the GI50 in the assay on COLO 205 colon is over 100000 nM; in the assay with OVCAR-3 ovarian it was over 100000 nM; in the assay on SW-620 colon, over 100000 nM; with SF-539 CNS, 17400 nM. Besides, the TGI in the assay with MCF7 breast was over 100000 nM; in the assay on HOP-62 NSCLC, over 100000 nM; with SK-MEL-5 melanoma, 35100 nM; in the assay on BT-549 breast, over 100000 nM; in the assay on SNB-75 CNS, over 100000 nM; with K-562 leukemia it was over 100000 nM. Also, the TGI with COLO 205 colon is over 100000 nM; in the assay with OVCAR-3 ovarian it was over 100000 nM; with SW-620 colon, over 100000 nM; with SF-539 CNS, 38900 nM.
Turning to `CN(C)CCNC(=O)c1ccc(-c2nc3ccc4[nH]ncc4c3c3c2C2CCC3C2)cc1` (stereo not given), the GI50 was 889 nM in the assay with MCF7 breast; 1290 nM in the assay on HOP-62 NSCLC; 1490 nM with SK-MEL-5 melanoma; 1250 nM in the assay on BT-549 breast; 341 nM in the assay on SNB-75 CNS; 1290 nM in the assay on K-562 leukemia. Also, the GI50 with COLO 205 colon was 569 nM; in the assay with OVCAR-3 ovarian it was 1710 nM; with SW-620 colon, 473 nM; in the assay on SF-539 CNS, 702 nM. The TGI amounted to 6700 nM in the assay on MCF7 breast; 5700 nM in the assay with HOP-62 NSCLC; 4570 nM in the assay with SK-MEL-5 melanoma; 2930 nM in the assay on BT-549 breast; 1140 nM in the assay on SNB-75 CNS; 9400 nM in the assay on K-562 leukemia. Moreover, the TGI was found to be 4190 nM in the assay with COLO 205 colon, 5900 nM in the assay on OVCAR-3 ovarian, 5160 nM in the assay on SW-620 colon and 2390 nM with SF-539 CNS.
With `Oc1c(Cl)cc(Cl)c2ccc(Cn3cc(-c4cc(C(F)(F)F)cc(C(F)(F)F)c4)nn3)nc12`, the GI50 in the assay with MCF7 breast is 526 nM; with HOP-62 NSCLC it was 15500 nM; in the assay on SK-MEL-5 melanoma, 2980 nM; in the assay with BT-549 breast, 1840 nM; with SNB-75 CNS, 1470 nM; with K-562 leukemia it was 313 nM. Further, the GI50 in the assay with COLO 205 colon is 1350 nM; in the assay on OVCAR-3 ovarian, 1280 nM; with SW-620 colon, 473 nM; with SF-539 CNS it was 1530 nM. The TGI was 2100 nM with MCF7 breast; 30700 nM in the assay with HOP-62 NSCLC; 10700 nM with SK-MEL-5 melanoma; 4410 nM in the assay with BT-549 breast; 8090 nM in the assay with SNB-75 CNS; over 100000 nM with K-562 leukemia. The TGI with COLO 205 colon was determined as 2890 nM; in the assay with OVCAR-3 ovarian it was 2560 nM; in the assay on SW-620 colon, 1810 nM; in the assay on SF-539 CNS it was 2940 nM.
As for `CSc1ncc(Br)c(Sc2nc(N)nc3nc[nH]c23)n1`, the GI50 is 1910 nM in the assay on MCF7 breast; 2590 nM with HOP-62 NSCLC; 3120 nM with SK-MEL-5 melanoma; 2640 nM in the assay with BT-549 breast; 2820 nM in the assay with SNB-75 CNS; 2010 nM with K-562 leukemia. The GI50 in the assay on COLO 205 colon was 3090 nM; in the assay on OVCAR-3 ovarian, 3320 nM; in the assay with SW-620 colon, 4460 nM; in the assay with SF-539 CNS it was 3200 nM. Moreover, the TGI was 11900 nM in the assay with MCF7 breast; over 100000 nM in the assay on HOP-62 NSCLC; 36100 nM in the assay on SK-MEL-5 melanoma; over 100000 nM in the assay on BT-549 breast; 81400 nM in the assay on SNB-75 CNS; 10100 nM in the assay with K-562 leukemia. Besides, the TGI with COLO 205 colon was determined as 9170 nM; in the assay on OVCAR-3 ovarian, 11100 nM; with SW-620 colon it was 24000 nM; with SF-539 CNS, 15000 nM.
`C=C/C(C)=C/C[C@]1(C)[C@H](C)[C@@H](OC(=O)CCC)[C@H](O)[C@@]23C(=C[C@H](OC)C[C@@H]12)[C@@H](OC(=O)CCC)O[C@H]3OC(C)=O`: the GI50 was 1160 nM with MCF7 breast; 1620 nM in the assay on HOP-62 NSCLC; 704 nM in the assay with SK-MEL-5 melanoma; 1110 nM with BT-549 breast; 1210 nM in the assay on SNB-75 CNS; 438 nM in the assay with K-562 leukemia. Further, the GI50 in the assay with COLO 205 colon is 444 nM; in the assay with OVCAR-3 ovarian it was 191 nM; with SW-620 colon, 333 nM; with SF-539 CNS, 566 nM. In addition, the TGI with MCF7 breast was 2910 nM; in the assay on HOP-62 NSCLC, 3620 nM; in the assay on SK-MEL-5 melanoma, 2030 nM; in the assay on BT-549 breast it was 2750 nM; in the assay with SNB-75 CNS, 2470 nM; in the assay with K-562 leukemia, 2410 nM. Moreover, the TGI is 1730 nM in the assay with COLO 205 colon, 400 nM in the assay with OVCAR-3 ovarian, 1210 nM in the assay on SW-620 colon and 1600 nM with SF-539 CNS.
